# Assay results reported in ChEMBL document CHEMBL4680361, “Degradation of Janus Kinase for Potential Application in Immune Response Therapeutics” (ACS Med Chem Lett, 2021).
# Activity calls are given as the source filed them. The rule behind the calls is not given here.
# Key:
# RS4-11 = experiment: Cytotoxicity against human RS4-11 cells assessed as reduction in cell viability measured after 3 days by CellTiter-Glo assay; type: functional, cell-based; settings: RS4-11, 72 h
# IMR-90 = experiment: Cytotoxicity against human IMR-90 cells assessed as effect on cell viability at 10^-10 to 10^-5 M measured after 3 days by CellTiter-Glo assay; type: cell-based; settings: imr-90, 72 h, dose 0.0001-10 µM, time 3 day
# [1] = tested on: Protein cereblon/Tyrosine-protein kinase JAK2 (Homo sapiens), O60674+Q96SW2 [UNDEFINED MUTATION]; experiment: Protac activity at CRBN/JAK2 V617 mutant in human HEL cells assessed as decrease in JAK2 V617 mutant protein level at < 60 nM measured after 24 hrs by immunoblotting analysis; type: cell-based; settings: dose nM <60, time 24.0 hrs
# HaCaT = experiment: Cytotoxicity against human HaCaT cells assessed as effect on cell viability at 10^-10 to 10^-5 M measured after 3 days by CellTiter-Glo assay; type: cell-based; settings: 72 h, dose 0.0001-10 µM, time 3 day
# [2] = biological target: Protein cereblon/Tyrosine-protein kinase JAK1 (Homo sapiens, UniProt P23458+Q96SW2); experiment: Protac activity at CRBN/JAK1 in human RS4-11 cells assessed as degradation of JAK1 measured after 24 hrs by immunoblotting analysis; type: cell-based
# Chain of Protein cereblon/Tyrosine-protein kinase JAK1 (P23458 whole entry): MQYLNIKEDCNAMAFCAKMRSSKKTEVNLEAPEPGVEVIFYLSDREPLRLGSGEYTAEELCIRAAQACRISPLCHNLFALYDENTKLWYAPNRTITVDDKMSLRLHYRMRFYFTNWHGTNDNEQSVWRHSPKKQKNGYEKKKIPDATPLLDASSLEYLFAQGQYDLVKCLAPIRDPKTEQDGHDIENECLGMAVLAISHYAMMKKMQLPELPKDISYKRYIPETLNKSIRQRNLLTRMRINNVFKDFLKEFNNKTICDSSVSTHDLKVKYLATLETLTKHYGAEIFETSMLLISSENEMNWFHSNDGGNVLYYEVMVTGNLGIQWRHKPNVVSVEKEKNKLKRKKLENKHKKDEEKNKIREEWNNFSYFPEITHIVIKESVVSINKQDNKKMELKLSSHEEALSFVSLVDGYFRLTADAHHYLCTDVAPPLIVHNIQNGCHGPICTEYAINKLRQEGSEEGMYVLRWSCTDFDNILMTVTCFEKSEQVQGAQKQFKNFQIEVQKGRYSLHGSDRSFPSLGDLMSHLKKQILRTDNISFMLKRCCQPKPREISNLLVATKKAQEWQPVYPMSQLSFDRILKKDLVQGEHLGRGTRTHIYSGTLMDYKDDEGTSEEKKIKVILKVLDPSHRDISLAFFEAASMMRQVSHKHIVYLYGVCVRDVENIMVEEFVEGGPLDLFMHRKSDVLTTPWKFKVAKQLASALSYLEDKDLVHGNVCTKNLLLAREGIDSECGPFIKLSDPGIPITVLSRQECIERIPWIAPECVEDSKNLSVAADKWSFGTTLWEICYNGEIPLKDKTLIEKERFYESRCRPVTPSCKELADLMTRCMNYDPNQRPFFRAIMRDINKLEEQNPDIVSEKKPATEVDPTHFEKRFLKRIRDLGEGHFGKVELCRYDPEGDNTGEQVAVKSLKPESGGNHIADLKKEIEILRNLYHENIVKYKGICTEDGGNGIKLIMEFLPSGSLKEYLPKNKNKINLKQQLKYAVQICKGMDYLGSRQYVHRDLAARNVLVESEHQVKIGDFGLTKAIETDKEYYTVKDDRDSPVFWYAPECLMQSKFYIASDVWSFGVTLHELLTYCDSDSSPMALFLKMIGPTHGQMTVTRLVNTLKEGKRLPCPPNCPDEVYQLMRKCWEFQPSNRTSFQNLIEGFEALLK
# Chain of Protein cereblon/Tyrosine-protein kinase JAK1 (Q96SW2 whole entry): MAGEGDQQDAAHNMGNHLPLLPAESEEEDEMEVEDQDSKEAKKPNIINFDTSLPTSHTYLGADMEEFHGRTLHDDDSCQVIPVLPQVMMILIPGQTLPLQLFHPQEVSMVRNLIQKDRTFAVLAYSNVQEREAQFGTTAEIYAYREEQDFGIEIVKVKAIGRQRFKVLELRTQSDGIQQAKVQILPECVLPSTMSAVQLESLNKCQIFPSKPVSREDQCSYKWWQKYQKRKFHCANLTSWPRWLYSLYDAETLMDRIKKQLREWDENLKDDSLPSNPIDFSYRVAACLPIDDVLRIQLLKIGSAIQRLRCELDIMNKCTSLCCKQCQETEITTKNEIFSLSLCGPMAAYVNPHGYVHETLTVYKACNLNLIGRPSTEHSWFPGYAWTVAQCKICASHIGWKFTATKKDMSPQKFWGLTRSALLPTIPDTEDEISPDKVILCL
# Chain of Protein cereblon/Tyrosine-protein kinase JAK2 (Homo sapiens), O60674+Q96SW2 [UNDEFINED MUTATION] (O60674 whole entry, looked up, stated change not applied): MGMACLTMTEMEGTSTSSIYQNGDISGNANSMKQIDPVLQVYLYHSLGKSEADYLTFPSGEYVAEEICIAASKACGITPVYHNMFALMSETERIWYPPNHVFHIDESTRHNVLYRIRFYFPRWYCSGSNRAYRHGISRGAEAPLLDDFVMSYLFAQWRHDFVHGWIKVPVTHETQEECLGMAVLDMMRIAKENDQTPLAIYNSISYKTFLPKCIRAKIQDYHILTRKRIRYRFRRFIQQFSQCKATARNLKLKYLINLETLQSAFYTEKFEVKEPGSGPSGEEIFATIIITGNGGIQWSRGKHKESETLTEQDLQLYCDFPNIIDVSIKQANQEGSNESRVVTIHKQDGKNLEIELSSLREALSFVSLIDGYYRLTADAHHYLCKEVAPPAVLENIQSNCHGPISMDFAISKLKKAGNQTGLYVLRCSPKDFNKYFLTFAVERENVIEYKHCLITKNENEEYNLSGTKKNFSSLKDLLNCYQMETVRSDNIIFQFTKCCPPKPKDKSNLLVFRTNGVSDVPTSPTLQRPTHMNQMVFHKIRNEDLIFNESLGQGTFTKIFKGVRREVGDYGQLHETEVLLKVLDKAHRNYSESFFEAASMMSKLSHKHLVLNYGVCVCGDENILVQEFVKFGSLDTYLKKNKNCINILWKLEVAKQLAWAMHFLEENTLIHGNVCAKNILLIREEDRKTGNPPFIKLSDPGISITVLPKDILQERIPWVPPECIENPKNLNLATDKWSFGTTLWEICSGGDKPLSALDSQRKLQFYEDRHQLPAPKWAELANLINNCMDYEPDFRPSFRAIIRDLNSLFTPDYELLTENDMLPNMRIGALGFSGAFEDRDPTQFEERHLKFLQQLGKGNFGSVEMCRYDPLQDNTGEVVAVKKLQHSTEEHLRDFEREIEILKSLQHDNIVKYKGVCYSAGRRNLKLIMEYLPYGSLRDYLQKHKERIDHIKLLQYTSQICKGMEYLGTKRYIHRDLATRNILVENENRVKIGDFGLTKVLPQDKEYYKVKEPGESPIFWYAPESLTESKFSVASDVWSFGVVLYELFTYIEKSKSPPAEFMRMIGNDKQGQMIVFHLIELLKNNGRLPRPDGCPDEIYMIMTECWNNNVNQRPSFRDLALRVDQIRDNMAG
# Chain of Protein cereblon/Tyrosine-protein kinase JAK2 (Homo sapiens), O60674+Q96SW2 [UNDEFINED MUTATION] (Q96SW2 whole entry, looked up, stated change not applied): as the sequence (Q96SW2 whole entry) above
SMILES,IC50 (RS4-11) [nM],also measured
CS(=O)(=O)c1ccc(-c2cccc3nc(Nc4ccc(N5CCN(C(=O)CCCCCNc6ccc7c(c6)C(=O)N(C6CCC(=O)NC6=O)C7=O)CC5)cc4)nn23)cc1 (configuration not stated),7.3,
CS(=O)(=O)c1ccc(-c2cccc3nc(Nc4ccc(N5CCN(C(=O)CCCCCCOc6ccc7c(c6)C(=O)N(C6CCC(=O)NC6=O)C7)CC5)cc4)nn23)cc1 (configuration not stated),5.4,
CS(=O)(=O)c1ccc(-c2cccc3nc(Nc4ccc(N5CCN(CC(=O)NCCCCCCCNc6ccc7c(c6)C(=O)N(C6CCC(=O)NC6=O)C7=O)CC5)cc4)nn23)cc1 (configuration not stated),63.5,
CS(=O)(=O)c1ccc(-c2cccc3nc(Nc4ccc(N5CCN(CC(=O)NCCCCCCCCNc6ccc7c(c6)C(=O)N(C6CCC(=O)NC6=O)C7=O)CC5)cc4)nn23)cc1 (configuration not stated),8.45,Activity (IMR-90): Non-Toxic; Activity [1]: Active; Activity (HaCaT): Non-Toxic; DC50 [2]: < 35 nM
O=C1CCC(N2C(=O)c3ccc(NCCCCC(=O)N4CCC(n5cc(-c6cnc7cccc(-c8cc(F)c(CN9CCOCC9)c(F)c8)c7n6)cn5)CC4)cc3C2=O)C(=O)N1 (configuration not stated),13.8,
O=C1CCC(N2C(=O)c3ccc(NCCCCCC(=O)N4CCC(n5cc(-c6cnc7cccc(-c8cc(F)c(CN9CCOCC9)c(F)c8)c7n6)cn5)CC4)cc3C2=O)C(=O)N1 (configuration not stated),2.03,Activity (IMR-90): Non-Toxic; Activity (HaCaT): Non-Toxic; DC50 [2]: < 5 nM
CS(=O)(=O)c1ccc(-c2cccc3nc(Nc4ccc(N5CCN(C(=O)CCCCCOc6ccc7c(c6)CN(C6CCC(=O)NC6=O)C7=O)CC5)cc4)nn23)cc1 (configuration not stated),32.8,
O=C1CCC(N2Cc3cc(OCCCCCC(=O)N4CCC(n5cc(-c6cnc7cccc(-c8cc(F)c(CN9CCOCC9)c(F)c8)c7n6)cn5)CC4)ccc3C2=O)C(=O)N1 (configuration not stated),3.6,
O=C1CCC(N2Cc3ccc(OCCCCCCC(=O)N4CCC(n5cc(-c6cnc7cccc(-c8cc(F)c(CN9CCOCC9)c(F)c8)c7n6)cn5)CC4)cc3C2=O)C(=O)N1 (configuration not stated),3.8,
O=C1CCC(N2C(=O)c3ccc(NCCCCCCCC(=O)N4CCC(n5cc(-c6cnc7cccc(-c8cc(F)c(CN9CCOCC9)c(F)c8)c7n6)cn5)CC4)cc3C2=O)C(=O)N1 (configuration not stated),54.4,
